Key:
[1] = biological target: NADH:quinone oxidoreductase (NQO), PA1024 (Pseudomonas aeruginosa, UniProt Q9I4V0, Q80G); conditions: read-out: KBQ; varied NADH; 20 mM KPi, 200 mM NaCl, pH 7.0, 25 °C
[2] = biological target: NADH:quinone oxidoreductase (NQO), PA1024 (Pseudomonas aeruginosa, UniProt Q9I4V0, Q80E); conditions: read-out: KBQ; varied NADH; 20 mM KPi, 200 mM NaCl, pH 7.0, 25 °C
[3] = biological target: T1, NADH:quinone oxidoreductase (NQO), PA1024 (Pseudomonas aeruginosa, UniProt Q9I4V0); assay: steady-state NADH oxidation at […] nm, ping-pong global fit; type: biochemical; conditions: varied NADH; 20 mM KPi, 200 mM NaCl, pH 7.0, 25 °C; read-out: KBQ
T1 construct: full-length gene PA1024 in pET20b(+), expressed in E. coli Rosetta(DE3)pLysS, purified; EC 1.6.5.9

[4] = biological target: T1, NADH:quinone oxidoreductase (NQO), PA1024; assay: steady-state NADH oxidation at […] nm, Michaelis-Menten fit; type: biochemical; conditions: 100 μM NADH fixed (not saturating; apparent; unreliable); 20 mM KPi, 200 mM NaCl, pH 7.0, 25 °C
[5] = biological target: T1, NADH:quinone oxidoreductase (NQO), PA1024; assay: UV-visible absorption, FMN extraction by heat denaturation; type: binding; conditions: 10 mM Tris-Cl, 200 mM NaCl, 10% glycerol, pH 8.0, 25 °C; stoichiometry of co-purified FMN
[6] = biological target: T1, NADH:quinone oxidoreductase (NQO), PA1024; assay: anaerobic stopped-flow flavin reduction at […] nm; type: biochemical; conditions: 20 mM KPi, 200 mM NaCl, pH 7.0, 25 °C, unreliable (upper-bound estimate, saturated at lowest NADH)
[7] = biological target: T1, NADH:quinone oxidoreductase (NQO), PA1024; assay: anaerobic flavin reduction, absorption spectra; type: biochemical; conditions: 500 μM NADPH, pH 7, 25 °C, poor substrate

T1 sequence (Q9I4V0 whole entry): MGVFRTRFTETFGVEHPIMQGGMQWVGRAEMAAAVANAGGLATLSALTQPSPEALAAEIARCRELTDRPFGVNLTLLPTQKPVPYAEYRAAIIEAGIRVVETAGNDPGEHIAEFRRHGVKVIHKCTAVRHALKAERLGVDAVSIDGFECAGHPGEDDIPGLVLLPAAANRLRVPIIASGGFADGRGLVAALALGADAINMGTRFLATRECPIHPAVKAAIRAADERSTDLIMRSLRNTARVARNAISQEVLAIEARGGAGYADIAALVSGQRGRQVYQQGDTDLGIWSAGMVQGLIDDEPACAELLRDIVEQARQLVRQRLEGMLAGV
Sequence of NADH:quinone oxidoreductase (NQO), PA1024 (Pseudomonas aeruginosa, UniProt Q9I4V0, Q80G) (Q9I4V0 whole entry Q80G): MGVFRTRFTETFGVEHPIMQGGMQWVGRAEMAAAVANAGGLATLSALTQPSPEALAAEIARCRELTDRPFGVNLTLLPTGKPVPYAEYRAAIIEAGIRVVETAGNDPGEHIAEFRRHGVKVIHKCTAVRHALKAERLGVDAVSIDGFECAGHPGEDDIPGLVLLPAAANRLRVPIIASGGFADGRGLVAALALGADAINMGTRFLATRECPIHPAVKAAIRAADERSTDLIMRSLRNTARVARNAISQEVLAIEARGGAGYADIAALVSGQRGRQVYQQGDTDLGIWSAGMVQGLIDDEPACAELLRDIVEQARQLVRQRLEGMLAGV
Sequence of NADH:quinone oxidoreductase (NQO), PA1024 (Pseudomonas aeruginosa, UniProt Q9I4V0, Q80E) (Q9I4V0 whole entry Q80E): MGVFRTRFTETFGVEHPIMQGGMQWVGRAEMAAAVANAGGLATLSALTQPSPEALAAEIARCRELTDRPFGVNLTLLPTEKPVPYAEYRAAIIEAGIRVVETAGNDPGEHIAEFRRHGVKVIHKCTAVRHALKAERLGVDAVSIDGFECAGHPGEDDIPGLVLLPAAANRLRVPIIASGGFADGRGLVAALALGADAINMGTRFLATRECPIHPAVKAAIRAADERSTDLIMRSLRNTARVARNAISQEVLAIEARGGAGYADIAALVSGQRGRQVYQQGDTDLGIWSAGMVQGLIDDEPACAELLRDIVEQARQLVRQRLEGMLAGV

With `O=C1C=CC(=O)C=C1` [1,4-benzoquinone] the Km [1] was 20 ± 1 µM, the Km [2] was 15 ± 1 µM and the Km [3] was 30 ± 1 µM.
In the case of `COC1=C(OC)C(=O)C(C)=CC1=O` [2,3-dimethoxy-5-methyl-1,4-benzoquinone], the “^app(Km)” value [4] is reported as 60 ± 1 µM.
`CC1=CC(=O)C=CC1=O` [2-methyl-1,4-benzoquinone] was tested, and the “^app(Km)” value [4] was 96 ± 1 µM.
For `O=C1C=CC(=O)c2c(O)cccc21` [5-hydroxy-1,4-naphthoquinone], the “^app(Km)” value [4] was 21 ± 1 µM.
Compound `Cc1cc2nc3c(=O)[nH]c(=O)nc-3n(C[C@H](O)[C@H](O)[C@H](O)COP(=O)(O)O)c2cc1C` [FMN] has an FMN/Protein [5] of 0.40.
With `NC(=O)C1=CN([C@@H]2O[C@H](COP(=O)(O)OP(=O)(O)OC[C@H]3O[C@@H](n4cnc5c(N)ncnc54)[C@H](O)[C@@H]3O)[C@@H](O)[C@H]2O)C=CC1` [NADH] the “Kd (μM)” value [6] was “<= ≤ 3 μM”.
`NC(=O)C1=CN([C@@H]2O[C@H](COP(=O)(O)OP(=O)(O)OC[C@H]3O[C@@H](n4cnc5c(N)ncnc54)[C@H](OP(=O)(O)O)[C@@H]3O)[C@@H](O)[C@H]2O)C=CC1` [NADPH] was tested, and the “% flavin reduction over 10 min at 500 μM” value [7] was ~ 10%.
